# Laboratory results taken from US6632963B1, “Bicyclic aromatic compounds and pharmaceutical/cosmetic compositions comprised thereof” (Galderma Research & Development S.N.C., priority 1998, dated 2003).
# Key:
# RXRα [1] = biological target: T1, RXRα (Homo sapiens, UniProt P19793); experiment: RXRα transactivation, agonist activity; assay type: cell-based
# T1 sequence (P19793 1-462): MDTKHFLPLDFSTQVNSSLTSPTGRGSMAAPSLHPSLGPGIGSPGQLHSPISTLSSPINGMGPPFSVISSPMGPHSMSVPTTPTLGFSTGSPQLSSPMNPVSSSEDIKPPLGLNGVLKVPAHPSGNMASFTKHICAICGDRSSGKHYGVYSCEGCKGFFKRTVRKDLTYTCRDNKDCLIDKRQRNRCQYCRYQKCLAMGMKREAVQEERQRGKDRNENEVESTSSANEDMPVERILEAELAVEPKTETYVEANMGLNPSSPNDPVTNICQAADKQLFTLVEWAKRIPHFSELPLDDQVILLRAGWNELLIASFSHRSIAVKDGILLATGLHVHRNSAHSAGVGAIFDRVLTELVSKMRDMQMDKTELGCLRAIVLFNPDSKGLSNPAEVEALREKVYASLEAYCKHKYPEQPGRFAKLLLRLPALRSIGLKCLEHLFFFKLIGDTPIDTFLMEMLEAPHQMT
# Excerpt: The binding and transactivation properties as RXR-receptor agonists can be determined by methods known in the art, such as, for example: Levin et al., Nature, 355, 359-61 (1992); Allenby et al., Proc. Natl. Acad. Sci., 90, 30-4 (1993).
# RXRα [2] = biological target: T1, RXRα; experiment: cell-based
RXRα transactivation Agonist AC50 (nM) (RXRα [1]),IC50 (RXRα [2]) [nM],AC50 (RXRα [1]) [nM],melting point [°C],Structure (SMILES)
inactive,729,–,–,"CCCCCOc1c(-c2cc(C=CC(=O)O)ccc2O)cc(C(C)(C)C)cc1C(C)(C)C [Compound 3, 3-(3′,5′-di-tert-Butyl-6-hydroxy-2′-pentyloxy-3-biphenylyl)acrylic Acid]"
–,–,32,–,"COCOc1ccc(C#CC(=O)O)cc1-c1cc2c(cc1C)C(C)(C)CCC2(C)C [Compound 7, [4-Methoxymethoxy-3-(3,5,5,8,8-pentamethyl-5,6,7,8-tetrahydro-2-naphthyl)phenyl]propynoic Acid]"
inactive,920,–,–,"CC(C)(C)c1cc(-c2cc(C=CC(=O)O)ccc2O)c(OCc2ccccc2)c(C(C)(C)C)c1 [Compound 2, 3-(2′-Benzyloxy-3′,5′-di-tert-butyl-6-hydroxy-3-biphenylyl)acrylic Acid]"
–,–,165,–,"COc1c(-c2cc(C=CC(=O)O)ccc2O)cc(C(C)(C)C)cc1C(C)(C)C [Compound 4, 3-(3′,5′-di-tert-Butyl-6-hydroxy-2′-methoxy-3-biphenylyl)acrylic Acid]"
inactive,631,–,–,"CCCCCOc1cc2c(cc1-c1cc(C=CC(=O)O)ccc1OCOC)C(C)(C)CCC2(C)C [Compound 9, 3-[3-(3-Pentyloxy-5,5,8,8-tetramethyl-5,6,7,8-tetrahydro-2-naphthyl)-4-methoxymethoxyphenyl]acrylic Acid]"
–,–,–,188 to 189,COCOc1c(-c2cccc(C=CC(=O)O)c2)ccc2c1C(C)(C)CCC2(C)C
–,–,384,–,"COc1c(-c2cccc(C=CC(=O)O)c2)cc(C(C)(C)C)cc1C(C)(C)C [Compound 1, 3-(3′,5′-di-tert-Butyl-2′-methoxy-3-biphenylyl)acrylic Acid]"
inactive,4000,–,–,"COCOc1ccc(C=CC(=O)O)cc1-c1cc2c(cc1OCc1ccccc1)C(C)(C)CCC2(C)C [Compound 5, 3-[3-(3-Benzyloxy-5,5,8,8-tetramethyl-5,6,7,8-tetrahydro-2-naphthyl)-4-methoxymethoxyphenyl]acrylic Acid]"

Structure (SMILES),RXRα transactivation Agonist AC50 (nM) (RXRα [1]),IC50 (RXRα [2]) [nM],AC50 (RXRα [1]) [nM],melting point [°C]
"CC1(C)CCC(C)(C)c2cc(-c3cc(C=CC(=O)O)ccc3O)c(OCc3ccccc3)cc21 [Compound 6, 3-[3-(3-Benzyloxy-5,5,8,8-tetramethyl-5,6,7,8-tetrahydro-2-naphthyl)-4-hydroxyphenyl]acrylic Acid]",inactive,505,–,–
"CCCOc1cc2c(cc1-c1cc(C=CC(=O)O)ccc1OCOC)C(C)(C)CCC2(C)C [Compound 8, 3-[3-(3-Propyloxy-5,5,8,8-tetramethyl-5,6,7,8-tetrahydro-2-naphthyl)-4-methoxymethoxyphenyl]acrylic Acid]",inactive,1100,–,–
